Data: publication PMC9161374 (Science Translational Medicine, 2022)
“And” between values parts separate entries of the source, which are not always exact repeats. Equal values may be shown once. Read-outs that look alike come from different tables or passages of the source.

What was measured:
SARS-CoV-2 (strain B.1) = test: SARS-CoV-2 infection in Ad5-hACE2 mice; format: in vivo, Ad5-hACE2 BALB/c mice
[1] = CCK-8 cell viability assay; format: cell-based, African green monkey; conditions: African green monkey; Vero E6 cells, 48 h, CCK8
Experimental: To investigate the effect of drugs on cell viability, Vero E6 cells were seeded in 96-well plates at a density of 20,000 cells per well and were treated with drugs at indicated concentrations (0, 0.01, 0.1, 1, 5, 10, 50, 75, 100, 200 μM) for 48 hours. Cell viability was tested by using Cell Counting Kit-8 (CCK-8, Bimake, B34302). The figures were plotted from cell viability percentage versus the drug concentrations using GraphPad Prism 6 software.
Fig. S4. Cytotoxicity assay of compounds in Vero E6 cells.
Vero E6 cells were plated in 96-well plates and treated with increasing concentrations
of each indicated compound, ranging from 0 to 200 μM, for 48 hours. Cell viability was
tested using Cell Counting Kit-8 (CCK-8). Data are presented as mean ± SD.

SARS-CoV-2 (B.1) = test: Anti-SARS-CoV-2 activity in Vero E6 cells (viral yield by qRT-PCR); format: cell-based
[2] = system: SARS-CoV-2 (B.1) in Huh7 cells; test: Anti-SARS-CoV-2 activity in Huh7 cells (viral yield by qRT-PCR); format: cell-based; conditions: B.1, MOI 0.05, 48 h
[3] = system: SARS-CoV-2 (Beta, B.1.351); test: microbe, parasite or virus in culture; format: cell-based; conditions: for EC50: read-out: EC50 in Vero E6 cells, SARS-CoV-2 (Beta, B.1.351); for % Inhibition: beta
[4] = system: SARS-CoV-2 replicon system (pBAC-SARS-CoV-2-Replicon-Luc); test: microbe, parasite or virus in culture; format: cell-based; conditions: Severe acute respiratory syndrome coronavirus 2, HEK-293T, 60 h
[5] = system: SARS-CoV-2 (Delta, B.1.617.2); test: microbe, parasite or virus in culture; format: cell-based; conditions: for % Inhibition: delta

CC(C)C(=O)OC[C@H]1O[C@@H](n2ccc(NO)nc2=O)[C@H](O)[C@@H]1O [EIDD-2801, molnupiravir, reference compound]
Lung viral titer, Log10 (FFU/g) (SARS-CoV-2 (strain B.1); 500 mg/kg orally once daily, 2 dpi, FFA, individual mice): 3.468 Log10 (FFU/g) and 2.623 Log10 (FFU/g) and 3.1 Log10 (FFU/g) | viral load and pathological damage of the lung (SARS-CoV-2 (strain B.1); ATV006 250 mg/kg, EIDD-2801 500 mg/kg, orally once daily): reduce the viral load and pathological damage of the lung

CCCC(=O)OC[C@H]1O[C@@](C#N)(c2ccc3c(N)ncnn23)[C@H](O)[C@@H]1O [ATV009]
CC50 at 48 h [1]: > 50 µM | % Inhibition (SARS-CoV-2 (B.1); 1 μM, replicates, sheet Fig.S3): 55.195% | % Inhibition (SARS-CoV-2 (B.1); 2 μM, replicates, sheet Fig.S3): 75.409% | % Inhibition (SARS-CoV-2 (B.1); 5 μM, replicates, sheet Fig.S3): 88.59% | % Inhibition (SARS-CoV-2 (B.1); 10 μM, replicates, sheet Fig.S3): 90.9393% | % Inhibition (SARS-CoV-2 (B.1); B.1, 2 uM, Vero E6, replicates, 2 µM): 99.9224% | % Inhibition (SARS-CoV-2 (B.1); B.1, 5 uM, Vero E6, replicates, 5 µM): 99.9224% | % Inhibition (SARS-CoV-2 (B.1); B.1, 10 uM, Vero E6, replicates, 10 µM): 99.9809% | % Inhibition (SARS-CoV-2 (B.1); B.1, 50 uM, Vero E6, replicates, 50 µM): 99.9896% | inhibition at 0.1 µM (SARS-CoV-2 (B.1); Severe acute respiratory syndrome coronavirus 2, Vero C1008, 0.1 μM, replicates, sheet Fig.S3): 0% | inhibition at 0.5 µM (SARS-CoV-2 (B.1); Severe acute respiratory syndrome coronavirus 2, Vero C1008, 0.5 μM, replicates, sheet Fig.S3): 0% | inhibition at 1 µM (SARS-CoV-2 (B.1); Severe acute respiratory syndrome coronavirus 2, Vero C1008, 1 μM, replicates, sheet Fig.S3): 63.5% | inhibition at 2 µM (SARS-CoV-2 (B.1); Severe acute respiratory syndrome coronavirus 2, Vero C1008, 2 μM, replicates, sheet Fig.S3): 75.7% | inhibition at 5 µM (SARS-CoV-2 (B.1); Severe acute respiratory syndrome coronavirus 2, Vero C1008, 5 μM, replicates, sheet Fig.S3): 90.9% | inhibition at 10 µM (SARS-CoV-2 (B.1); Severe acute respiratory syndrome coronavirus 2, Vero C1008, 10 μM, replicates, sheet Fig.S3): 93.2% | inhibition at 0.01 µM (SARS-CoV-2 (B.1); Severe acute respiratory syndrome coronavirus 2, Vero C1008, B.1, 0.01 uM, Vero E6, replicates): 0% | inhibition at 0.1 µM (SARS-CoV-2 (B.1); Severe acute respiratory syndrome coronavirus 2, Vero C1008, B.1, 0.1 uM, Vero E6, replicates): 0% | inhibition at 0.25 µM (SARS-CoV-2 (B.1); Severe acute respiratory syndrome coronavirus 2, Vero C1008, B.1, 0.25 uM, Vero E6, replicates): 0% | inhibition at 0.5 µM (SARS-CoV-2 (B.1); Severe acute respiratory syndrome coronavirus 2, Vero C1008, B.1, 0.5 uM, Vero E6, replicates): 0% | inhibition at 1 µM (SARS-CoV-2 (B.1); Severe acute respiratory syndrome coronavirus 2, Vero C1008, B.1, 1 uM, Vero E6, replicates): 0% | inhibition at 2 µM (SARS-CoV-2 (B.1); Severe acute respiratory syndrome coronavirus 2, Vero C1008, B.1, 2 uM, Vero E6, replicates): 99.8% | inhibition at 5 µM (SARS-CoV-2 (B.1); Severe acute respiratory syndrome coronavirus 2, Vero C1008, B.1, 5 uM, Vero E6, replicates): 99.8% | inhibition at 10 µM (SARS-CoV-2 (B.1); Severe acute respiratory syndrome coronavirus 2, Vero C1008, B.1, 10 uM, Vero E6, replicates): 99.9% | inhibition at 50 µM (SARS-CoV-2 (B.1); Severe acute respiratory syndrome coronavirus 2, Vero C1008, B.1, 50 uM, Vero E6, replicates): 99.9% | EC90 (SARS-CoV-2 (B.1); Severe acute respiratory syndrome coronavirus 2, Vero C1008, read-out: EC90 (Confidence 95%)): 1.53 µM | EC50 (SARS-CoV-2 (B.1); Severe acute respiratory syndrome coronavirus 2, Vero C1008, MOI 0.05, 48 h): 1.33 µM | EC50 ([2]; Severe acute respiratory syndrome coronavirus 2, Huh-7, read-out: EC50 (Confidence 95%) in Huh7 cells): 1.03 µM | EC90 ([2]; Severe acute respiratory syndrome coronavirus 2, Huh-7, read-out: EC90 (Confidence 95%) in Huh7 cells): 1.31 µM | EC50 ([3]; Severe acute respiratory syndrome coronavirus 2, Vero C1008, 48 h): 1.38 µM | inhibition at 0.01 µM ([3]; Severe acute respiratory syndrome coronavirus 2, Vero C1008, beta, 0.01 uM, Vero E6, replicates): 0% | inhibition at 0.1 µM ([3]; Severe acute respiratory syndrome coronavirus 2, Vero C1008, beta, 0.1 uM, Vero E6, replicates): 0% | inhibition at 0.25 µM ([3]; Severe acute respiratory syndrome coronavirus 2, Vero C1008, beta, 0.25 uM, Vero E6, replicates): 0% | inhibition at 0.5 µM ([3]; Severe acute respiratory syndrome coronavirus 2, Vero C1008, beta, 0.5 uM, Vero E6, replicates): 0% | inhibition at 1 µM ([3]; Severe acute respiratory syndrome coronavirus 2, Vero C1008, beta, 1 uM, Vero E6, replicates): 0% | inhibition at 2 µM ([3]; Severe acute respiratory syndrome coronavirus 2, Vero C1008, beta, 2 uM, Vero E6, replicates): 97% | inhibition at 5 µM ([3]; Severe acute respiratory syndrome coronavirus 2, Vero C1008, beta, 5 uM, Vero E6, replicates): 99.7% | inhibition at 10 µM ([3]; Severe acute respiratory syndrome coronavirus 2, Vero C1008, beta, 10 uM, Vero E6, replicates): 99.9% | inhibition at 50 µM ([3]; Severe acute respiratory syndrome coronavirus 2, Vero C1008, beta, 50 uM, Vero E6, replicates): 99.9% | EC90 ([3]; Severe acute respiratory syndrome coronavirus 2, Vero C1008, read-out: EC90 (Confidence 95%), Vero-E6, Beta B.1.351): 1.78 µM | % Inhibition ([3]; 2 uM, Vero E6, replicates): 97.0202% | % Inhibition ([3]; 5 uM, Vero E6, replicates): 99.5977% | % Inhibition ([3]; 10 uM, Vero E6, replicates): 99.9341% | % Inhibition ([3]; 50 uM, Vero E6, replicates): 99.9498% | EC50 [3]: 1.48 µM | EC50 ([4]; read-out: EC50 (Confidence 95%), replicon): 0.217 µM | EC90 ([4]; read-out: EC90 (Confidence 95%), replicon): 0.313 µM | EC50 ([5]; Severe acute respiratory syndrome coronavirus 2, Vero C1008, 48 h, read-out: EC50 in Vero E6 cells, SARS-CoV-2 (Delta, B.1.617.2)): 0.492 µM | inhibition at 0.01 µM ([5]; Severe acute respiratory syndrome coronavirus 2, Vero C1008, delta, 0.01 uM, Vero E6, replicates): 0% | inhibition at 0.1 µM ([5]; Severe acute respiratory syndrome coronavirus 2, Vero C1008, delta, 0.1 uM, Vero E6, replicates): 0% | inhibition at 0.25 µM ([5]; Severe acute respiratory syndrome coronavirus 2, Vero C1008, delta, 0.25 uM, Vero E6, replicates): 0% | inhibition at 0.5 µM ([5]; Severe acute respiratory syndrome coronavirus 2, Vero C1008, delta, 0.5 uM, Vero E6, replicates): 57.8% | inhibition at 1 µM ([5]; Severe acute respiratory syndrome coronavirus 2, Vero C1008, delta, 1 uM, Vero E6, replicates): 94% | inhibition at 2 µM ([5]; Severe acute respiratory syndrome coronavirus 2, Vero C1008, delta, 2 uM, Vero E6, replicates): 95.8% | inhibition at 5 µM ([5]; Severe acute respiratory syndrome coronavirus 2, Vero C1008, delta, 5 uM, Vero E6, replicates): 91.8% | inhibition at 10 µM ([5]; Severe acute respiratory syndrome coronavirus 2, Vero C1008, delta, 10 uM, Vero E6, replicates): 99.7% | inhibition at 50 µM ([5]; Severe acute respiratory syndrome coronavirus 2, Vero C1008, delta, 50 uM, Vero E6, replicates): 99.9% | EC90 ([5]; Severe acute respiratory syndrome coronavirus 2, Vero C1008, read-out: EC90 (Confidence 95%), Vero-E6, Delta B.1.617.2): 0.678 µM | % Inhibition ([5]; 0.5 uM, Vero E6, replicates): 47.7229% | % Inhibition ([5]; 1 uM, Vero E6, replicates): 93.0132% | % Inhibition ([5]; 2 uM, Vero E6, replicates): 93.5943% | % Inhibition ([5]; 5 uM, Vero E6, replicates): 86.9079% | % Inhibition ([5]; 10 uM, Vero E6, replicates): 98.6486% | % Inhibition ([5]; 50 uM, Vero E6, replicates): 99.5907%
